Experimental data published in ChEMBL document CHEMBL1268881, “Peripheral but crucial: a hydrophobic pocket (Tyr(706), Leu(337), and Met(336)) for potent and selective inhibition of neuronal nitric oxide synthase” (Bioorg Med Chem Lett, 2010).

What was measured:
Nitric oxide synthase 1 [1] = molecular target: Nitric oxide synthase 1 (Rattus norvegicus, UniProt P29476); assay: Inhibition of rat nNOS expressed in Escherichia coli assessed as inhibition of nitric oxide formation by hemoglobin capture assay
Nitric oxide synthase 1 [2] = molecular target: Nitric oxide synthase 1 (Homo sapiens, UniProt P29475); assay: Inhibition of human nNOS expressed in Escherichia coli assessed as inhibition of nitric oxide formation by hemoglobin capture assay
[3] = molecular target: T1, Nitric oxide synthase, inducible (Mus musculus, UniProt P29477); assay: Inhibition of mouse iNOS expressed in Escherichia coli assessed as inhibition of nitric oxide formation by hemoglobin capture assay
T1 sequence (P29477 whole entry): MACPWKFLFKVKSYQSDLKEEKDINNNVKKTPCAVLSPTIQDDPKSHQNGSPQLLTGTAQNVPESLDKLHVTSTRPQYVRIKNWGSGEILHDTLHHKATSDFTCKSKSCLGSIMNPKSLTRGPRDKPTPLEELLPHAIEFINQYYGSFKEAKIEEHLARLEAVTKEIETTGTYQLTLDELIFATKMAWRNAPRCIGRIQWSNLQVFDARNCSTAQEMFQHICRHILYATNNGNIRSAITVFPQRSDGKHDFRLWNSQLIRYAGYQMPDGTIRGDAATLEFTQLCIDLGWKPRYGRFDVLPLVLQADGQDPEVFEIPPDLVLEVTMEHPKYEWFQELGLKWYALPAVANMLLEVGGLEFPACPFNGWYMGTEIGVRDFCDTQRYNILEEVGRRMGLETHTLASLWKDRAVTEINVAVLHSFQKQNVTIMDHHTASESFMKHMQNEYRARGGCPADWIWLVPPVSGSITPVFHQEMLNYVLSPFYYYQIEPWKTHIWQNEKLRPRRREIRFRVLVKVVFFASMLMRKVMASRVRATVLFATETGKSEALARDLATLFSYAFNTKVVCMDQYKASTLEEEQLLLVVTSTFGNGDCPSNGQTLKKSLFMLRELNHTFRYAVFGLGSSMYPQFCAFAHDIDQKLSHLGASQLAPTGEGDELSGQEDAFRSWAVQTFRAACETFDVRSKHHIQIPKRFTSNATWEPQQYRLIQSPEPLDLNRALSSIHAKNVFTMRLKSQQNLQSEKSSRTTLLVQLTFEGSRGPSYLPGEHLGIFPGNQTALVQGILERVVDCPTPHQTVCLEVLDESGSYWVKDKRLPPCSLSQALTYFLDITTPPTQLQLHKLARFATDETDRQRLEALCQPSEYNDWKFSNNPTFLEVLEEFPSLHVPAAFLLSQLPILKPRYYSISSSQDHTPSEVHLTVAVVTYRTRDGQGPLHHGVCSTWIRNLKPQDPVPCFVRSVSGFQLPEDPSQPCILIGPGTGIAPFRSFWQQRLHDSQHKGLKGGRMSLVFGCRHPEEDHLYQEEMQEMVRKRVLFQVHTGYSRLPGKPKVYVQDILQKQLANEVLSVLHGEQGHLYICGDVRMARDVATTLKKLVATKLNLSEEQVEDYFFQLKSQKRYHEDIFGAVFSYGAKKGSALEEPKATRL

Nitric oxide synthase 3 = molecular target: T2, Nitric oxide synthase 3 (Bos taurus, UniProt P29473)
T2 sequence (P29473 whole entry): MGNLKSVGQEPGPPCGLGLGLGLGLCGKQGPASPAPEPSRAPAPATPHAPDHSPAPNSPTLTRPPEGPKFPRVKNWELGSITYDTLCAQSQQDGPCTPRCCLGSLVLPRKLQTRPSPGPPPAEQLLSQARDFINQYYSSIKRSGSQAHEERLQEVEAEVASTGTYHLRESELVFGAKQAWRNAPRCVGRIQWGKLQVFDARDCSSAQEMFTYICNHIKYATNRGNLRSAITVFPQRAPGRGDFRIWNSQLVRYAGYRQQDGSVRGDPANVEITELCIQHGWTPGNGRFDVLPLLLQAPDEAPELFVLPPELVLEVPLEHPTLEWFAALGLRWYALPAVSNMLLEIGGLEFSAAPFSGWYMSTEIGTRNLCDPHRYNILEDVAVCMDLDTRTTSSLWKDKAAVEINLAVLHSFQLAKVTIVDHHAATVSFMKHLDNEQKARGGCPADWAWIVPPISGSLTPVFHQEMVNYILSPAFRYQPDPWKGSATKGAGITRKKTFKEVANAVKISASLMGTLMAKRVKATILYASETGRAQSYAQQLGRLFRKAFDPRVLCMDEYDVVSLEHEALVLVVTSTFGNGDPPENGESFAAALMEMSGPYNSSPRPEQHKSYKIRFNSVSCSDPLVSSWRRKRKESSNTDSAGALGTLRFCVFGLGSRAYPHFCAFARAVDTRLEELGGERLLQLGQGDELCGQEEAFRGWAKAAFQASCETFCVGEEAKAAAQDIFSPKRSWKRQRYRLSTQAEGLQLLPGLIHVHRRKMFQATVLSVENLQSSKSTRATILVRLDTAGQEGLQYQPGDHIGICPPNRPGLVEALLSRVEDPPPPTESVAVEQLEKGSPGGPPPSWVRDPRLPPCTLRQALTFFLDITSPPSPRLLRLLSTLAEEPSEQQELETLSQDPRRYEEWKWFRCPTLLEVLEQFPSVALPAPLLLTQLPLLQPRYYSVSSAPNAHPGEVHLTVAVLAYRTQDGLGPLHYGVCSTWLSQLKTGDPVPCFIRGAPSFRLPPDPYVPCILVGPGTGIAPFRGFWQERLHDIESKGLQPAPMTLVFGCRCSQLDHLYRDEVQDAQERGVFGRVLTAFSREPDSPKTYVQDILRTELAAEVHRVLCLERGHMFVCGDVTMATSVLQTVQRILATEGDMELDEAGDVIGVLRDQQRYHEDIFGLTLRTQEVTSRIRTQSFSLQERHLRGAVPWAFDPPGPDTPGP
Description: Inhibition of bovine eNOS expressed in Escherichia coli assessed as inhibition of nitric oxide formation by hemoglobin capture assay

Chain of Nitric oxide synthase 1 (Homo sapiens, UniProt P29475) (P29475 whole entry): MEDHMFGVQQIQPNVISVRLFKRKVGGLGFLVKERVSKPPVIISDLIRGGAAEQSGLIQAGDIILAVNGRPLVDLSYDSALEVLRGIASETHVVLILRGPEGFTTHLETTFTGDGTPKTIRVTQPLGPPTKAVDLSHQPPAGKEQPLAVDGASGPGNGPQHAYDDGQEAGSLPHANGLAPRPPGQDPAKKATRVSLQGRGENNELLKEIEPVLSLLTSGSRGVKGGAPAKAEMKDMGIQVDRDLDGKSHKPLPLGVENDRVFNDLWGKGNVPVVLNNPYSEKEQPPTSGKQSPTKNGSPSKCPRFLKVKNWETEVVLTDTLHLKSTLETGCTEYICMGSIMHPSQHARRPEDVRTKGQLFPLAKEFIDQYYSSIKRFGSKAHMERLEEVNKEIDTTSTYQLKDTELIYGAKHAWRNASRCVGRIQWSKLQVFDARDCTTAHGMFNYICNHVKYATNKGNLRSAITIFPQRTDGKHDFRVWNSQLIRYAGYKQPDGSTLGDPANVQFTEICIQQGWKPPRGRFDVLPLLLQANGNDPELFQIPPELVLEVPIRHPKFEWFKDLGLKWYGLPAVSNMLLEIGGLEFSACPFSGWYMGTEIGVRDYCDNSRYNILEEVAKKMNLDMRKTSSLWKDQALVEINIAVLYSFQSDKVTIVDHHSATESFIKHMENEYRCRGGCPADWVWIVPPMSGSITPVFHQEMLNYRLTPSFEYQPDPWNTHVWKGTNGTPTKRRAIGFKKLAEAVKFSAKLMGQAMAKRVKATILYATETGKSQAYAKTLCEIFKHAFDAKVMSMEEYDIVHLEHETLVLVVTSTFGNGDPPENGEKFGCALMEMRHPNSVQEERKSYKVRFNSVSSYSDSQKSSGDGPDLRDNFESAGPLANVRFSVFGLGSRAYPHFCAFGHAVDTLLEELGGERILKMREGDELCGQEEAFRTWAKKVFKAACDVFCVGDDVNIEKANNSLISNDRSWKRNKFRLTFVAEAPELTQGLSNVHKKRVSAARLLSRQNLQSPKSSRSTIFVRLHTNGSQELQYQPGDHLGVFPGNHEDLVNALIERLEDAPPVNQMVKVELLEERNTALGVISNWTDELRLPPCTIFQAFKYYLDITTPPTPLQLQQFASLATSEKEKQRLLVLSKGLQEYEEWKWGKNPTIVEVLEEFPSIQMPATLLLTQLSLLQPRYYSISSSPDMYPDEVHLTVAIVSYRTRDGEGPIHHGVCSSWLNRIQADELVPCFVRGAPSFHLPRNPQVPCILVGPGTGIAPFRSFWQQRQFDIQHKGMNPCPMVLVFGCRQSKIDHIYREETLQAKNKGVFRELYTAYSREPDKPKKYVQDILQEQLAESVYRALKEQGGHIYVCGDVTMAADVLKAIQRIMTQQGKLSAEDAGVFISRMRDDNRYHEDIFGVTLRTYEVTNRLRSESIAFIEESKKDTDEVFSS
Chain of Nitric oxide synthase 1 (Rattus norvegicus, UniProt P29476) (P29476 whole entry): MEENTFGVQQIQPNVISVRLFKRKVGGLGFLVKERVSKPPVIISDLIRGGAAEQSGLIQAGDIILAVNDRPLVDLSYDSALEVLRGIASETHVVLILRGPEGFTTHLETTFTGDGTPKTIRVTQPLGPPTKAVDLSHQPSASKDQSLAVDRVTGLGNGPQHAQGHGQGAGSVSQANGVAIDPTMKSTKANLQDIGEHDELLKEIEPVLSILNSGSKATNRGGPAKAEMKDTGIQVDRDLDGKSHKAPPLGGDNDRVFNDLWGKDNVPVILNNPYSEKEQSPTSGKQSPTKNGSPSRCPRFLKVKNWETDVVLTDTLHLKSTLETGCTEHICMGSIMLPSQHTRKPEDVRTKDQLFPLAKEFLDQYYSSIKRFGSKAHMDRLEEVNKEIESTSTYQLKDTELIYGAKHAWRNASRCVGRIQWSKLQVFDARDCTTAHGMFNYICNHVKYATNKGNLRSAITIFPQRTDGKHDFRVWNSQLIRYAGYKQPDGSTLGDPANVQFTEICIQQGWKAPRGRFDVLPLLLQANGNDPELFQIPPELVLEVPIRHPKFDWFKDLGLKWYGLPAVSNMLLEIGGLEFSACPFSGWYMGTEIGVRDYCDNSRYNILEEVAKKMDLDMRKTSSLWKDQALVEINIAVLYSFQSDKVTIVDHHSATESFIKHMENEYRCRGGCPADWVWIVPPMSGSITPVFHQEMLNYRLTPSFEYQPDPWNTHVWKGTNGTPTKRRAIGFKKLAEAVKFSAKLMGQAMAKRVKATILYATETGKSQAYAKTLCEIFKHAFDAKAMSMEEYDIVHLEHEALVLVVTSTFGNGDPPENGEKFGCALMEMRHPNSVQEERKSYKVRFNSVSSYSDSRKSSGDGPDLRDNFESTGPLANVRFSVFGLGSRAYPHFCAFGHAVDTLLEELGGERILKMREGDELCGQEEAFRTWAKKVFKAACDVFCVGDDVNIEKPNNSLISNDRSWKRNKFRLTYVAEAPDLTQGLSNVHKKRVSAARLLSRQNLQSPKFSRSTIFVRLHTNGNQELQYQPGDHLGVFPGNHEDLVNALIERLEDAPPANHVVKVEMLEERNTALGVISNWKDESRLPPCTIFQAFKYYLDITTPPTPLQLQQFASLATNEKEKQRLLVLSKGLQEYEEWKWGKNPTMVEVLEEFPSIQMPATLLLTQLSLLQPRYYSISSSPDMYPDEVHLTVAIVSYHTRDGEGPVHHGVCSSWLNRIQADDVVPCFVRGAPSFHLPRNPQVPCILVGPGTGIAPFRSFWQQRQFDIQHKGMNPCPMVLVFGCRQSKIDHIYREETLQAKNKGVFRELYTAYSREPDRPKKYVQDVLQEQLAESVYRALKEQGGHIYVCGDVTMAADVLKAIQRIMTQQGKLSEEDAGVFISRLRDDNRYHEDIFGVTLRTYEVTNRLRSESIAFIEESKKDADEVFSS

Row | Ki (Nitric oxide synthase 1 [1]) [µM] | Ki (Nitric oxide synthase 1 [2]) [µM] | Ki [3] [µM] | Ki (Nitric oxide synthase 3) [µM] | Structure (SMILES)
1 | 0.05 | 0.29 | 10 | 58 | Nc1cccc(C[C@@H]2CNC[C@@H]2OCCNCCc2cccc(F)c2)n1
2 | 0.22 | 1.8 | 13.2 | 59 | Nc1cccc(C[C@H]2CNC[C@H]2OCCNCCc2cccc(F)c2)n1
3 | 0.11 | 0.49 | 21.8 | 58 | NC1=NC(C[C@@H]2CNC[C@@H]2OCCNCCc2cccc(F)c2)CCC1 (stereo partly drawn)
4 | – | 0.05 | – | – | Cc1cc(N)nc(C[C@@H]2CNC[C@@H]2OCCNCCc2cccc(F)c2)c1
